Experimental data reported in ChEMBL document CHEMBL1201861, “Genomics of Drug Sensitity in Cancer screening data, Wellcome Trust Sanger Institute”.

Experiments:
LC4-1 = assay: cells; format: functional, cell-based; conditions: Homo sapiens;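 further: growth inhibition of LC4-1 cells, read out with a cell viability assay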
Description: SANGER: Inhibition of human LC4-1 cell growth in a cell viability assay.

NCI-H2030 = assay: cells; format: functional, cell-based; conditions: Homo sapiens;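 further: growth inhibition of human NCI-H2030 cells, read out by a cell viability assay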
Description: SANGER: Inhibition of human NCI-H2030 cell growth in a cell viability assay.

MEL-JUSO = assay: cells; format: functional, cell-based; conditions: Homo sapiens;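 further: growth inhibition of human MEL-JUSO cells, read out with a cell viability assay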
Description: SANGER: Inhibition of human MEL-JUSO cell growth in a cell viability assay.

SW1710 = assay: cells; format: functional, cell-based; conditions: Homo sapiens;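 further: growth inhibition of SW1710 cells, determined with a cell viability assay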
Description: SANGER: Inhibition of human SW1710 cell growth in a cell viability assay.

SKG-IIIa = assay: cells; format: functional, cell-based; conditions: Homo sapiens;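 further: cell growth inhibition, read out with a cell viability assay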
Description: SANGER: Inhibition of human SKG-IIIa cell growth in a cell viability assay.

NCI-H748 = assay: cells; format: functional, cell-based; conditions: Homo sapiens;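 further: growth inhibition of NCI-H748 cells, measured by a cell viability assay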
Description: SANGER: Inhibition of human NCI-H748 cell growth in a cell viability assay.

RD = assay: cells; format: functional, cell-based; conditions: Homo sapiens
Description: SANGER: Inhibition of human RD cell growth in a cell viability assay.

CWR22R = assay: cells; format: functional, cell-based; conditions: Homo sapiens, 22Rv1;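 further: growth inhibition of 22Rv1 cells, read out with a cell viability assay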
Description: SANGER: Inhibition of human 22RV1 cell growth in a cell viability assay.

MIA PaCa-2 = assay: cells; format: functional, cell-based; conditions: Homo sapiens;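 further: growth inhibition of MIA PaCa-2 cells, read out with a cell viability assay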
Description: SANGER: Inhibition of human MIA-PaCa-2 cell growth in a cell viability assay.

RPMI-2650 = assay: cells; format: functional, cell-based; conditions: Homo sapiens
Description: SANGER: Inhibition of human RPMI-2650 cell growth in a cell viability assay.

EB2 = assay: cells; format: functional, cell-based; conditions: Homo sapiens;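 further: growth inhibition of EB2 cells, read out with a cell viability assay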
Description: SANGER: Inhibition of human EB2 cell growth in a cell viability assay.

CAKI-1 = assay: cells; format: functional, cell-based; conditions: Homo sapiens;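 further: growth inhibition of CAKI-1 cells, measured by a cell viability assay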
Description: SANGER: Inhibition of human CAKI-1 cell growth in a cell viability assay.

EB-3 = assay: cells; format: functional, cell-based; conditions: Homo sapiens;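 further: human EB-3 cells, growth inhibition read out via a cell viability assay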
Description: SANGER: Inhibition of human EB-3 cell growth in a cell viability assay.

NCI-H2052 = assay: cells; format: functional, cell-based; conditions: Homo sapiens;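 further: growth inhibition of NCI-H2052 cells, read out with a cell viability assay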
Description: SANGER: Inhibition of human NCI-H2052 cell growth in a cell viability assay.

769-P = assay: cells; format: functional, cell-based; conditions: Homo sapiens
Description: SANGER: Inhibition of human 769-P cell growth in a cell viability assay.

SW626 = assay: cells; format: functional, cell-based; conditions: Homo sapiens;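 further: growth inhibition of SW626 cells, measured with a cell viability assay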
Description: SANGER: Inhibition of human SW626 cell growth in a cell viability assay.

8505C = assay: cells; format: functional, cell-based; conditions: Homo sapiens
Description: SANGER: Inhibition of human 8505C cell growth in a cell viability assay.

MDA-MB-361 = assay: cells; format: functional, cell-based; conditions: Homo sapiens
NCI-N87 = assay: cells; format: functional, cell-based; conditions: Homo sapiens;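 further: growth inhibition of human NCI-N87 cells, read out with a cell viability assay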
Description: SANGER: Inhibition of human NCI-N87 cell growth in a cell viability assay.

GCT = assay: cells; format: functional, cell-based; conditions: Homo sapiens;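 further: GCT cell line proliferation inhibition, read out with a cell viability assay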
Description: SANGER: Inhibition of human GCT cell growth in a cell viability assay.

T84 = assay: cells; format: functional, cell-based; conditions: Homo sapiens;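 further: growth inhibition measured with a cell viability readout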
Description: SANGER: Inhibition of human T84 cell growth in a cell viability assay.

TALL-1 = assay: cells; format: functional, cell-based; conditions: Homo sapiens;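 further: growth inhibition of cultured human TALL-1 cells, read out by a cell viability assay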
Description: SANGER: Inhibition of human TALL-1 cell growth in a cell viability assay.

UMC-11 = assay: cells; format: functional, cell-based; conditions: Homo sapiens;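 further: growth inhibition of UMC-11 cells, read out with a cell viability assay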
Description: SANGER: Inhibition of human UMC-11 cell growth in a cell viability assay.

LK-2 = assay: cells; format: functional, cell-based; conditions: Homo sapiens;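 further: growth inhibition of LK-2 cells, read out with a viability assay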
Description: SANGER: Inhibition of human LK-2 cell growth in a cell viability assay.

RPMI-6666 = assay: cells; format: functional, cell-based; conditions: Homo sapiens
Description: SANGER: Inhibition of human RPMI-6666 cell growth in a cell viability assay.

RERF-LC-MS = assay: cells; format: functional, cell-based; conditions: Homo sapiens;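 further: growth inhibition of human RERF-LC-MS cells, read out by a cell viability assay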
Description: SANGER: Inhibition of human RERF-LC-MS cell growth in a cell viability assay.

FaDu = assay: cells; format: functional, cell-based; conditions: Homo sapiens;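 further: cell viability readout of growth inhibition in FaDu cells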
Description: SANGER: Inhibition of human FADU cell growth in a cell viability assay.

A-375 = assay: cells; format: functional, cell-based; conditions: Homo sapiens;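 further: growth inhibition of A375 cells, read out with a cell viability assay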
Description: SANGER: Inhibition of human A375 cell growth in a cell viability assay.

MDA-MB-175-VII = assay: cells; format: functional, cell-based; conditions: Homo sapiens
KYSE-70 cell line = assay: cells; format: functional, cell-based; conditions: Homo sapiens;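 further: cell viability assay read-out, with IC50 expressing suppression of KYSE-70 cell growth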
Description: SANGER: Inhibition of human KYSE-70 cell growth in a cell viability assay.

K052 = assay: cells; format: functional, cell-based; conditions: Homo sapiens;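 further: Read-out from a cell viability assay, IC50 reflecting suppression of K052 cell growth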
Description: SANGER: Inhibition of human K052 cell growth in a cell viability assay.

8305C = assay: cells; format: functional, cell-based; conditions: Homo sapiens
Description: SANGER: Inhibition of human 8305C cell growth in a cell viability assay.

BC-3 = assay: cells; format: functional, cell-based; conditions: Homo sapiens;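 further: cell viability assay measuring growth inhibition of human BC-3 cells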
Description: SANGER: Inhibition of human BC-3 cell growth in a cell viability assay.

MCF7 = assay: cells; format: functional, cell-based; conditions: Homo sapiens;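 further: growth inhibition of human MCF7 cells, read out with a cell viability assay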
Description: SANGER: Inhibition of human MCF7 cell growth in a cell viability assay.

BXPC-3 = assay: cells; format: functional, cell-based; conditions: Homo sapiens;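 further: growth inhibition of human BxPC-3 cells, read out by a cell viability assay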
Description: SANGER: Inhibition of human BxPC-3 cell growth in a cell viability assay.

PANC-03-27 = assay: cells; format: functional, cell-based; conditions: Homo sapiens
Description: SANGER: Inhibition of human PANC-03-27 cell growth in a cell viability assay.

OAW-42 = assay: cells; format: functional, cell-based; conditions: Homo sapiens;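 further: growth inhibition of OAW-42 cells, read out with a cell viability assay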
Description: SANGER: Inhibition of human OAW-42 cell growth in a cell viability assay.

NCI-H1882 = assay: cells; format: functional, cell-based; conditions: Homo sapiens;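 further: growth inhibition of the cell line, determined with a viability assay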
Description: SANGER: Inhibition of human NCI-H1882 cell growth in a cell viability assay.

5637 = assay: cells; format: functional, cell-based; conditions: Homo sapiens
Description: SANGER: Inhibition of human 5637 cell growth in a cell viability assay.

CAL-12T = assay: cells; format: functional, cell-based, Homo sapiens; conditions: Homo sapiens, CAL-12T;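 further: growth inhibition of human CAL-12T cells, read out with a cell viability assay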
Description: SANGER: Inhibition of human CAL-12T cell growth in a cell viability assay.

CaR-1 = assay: cells; format: functional, cell-based; conditions: Homo sapiens;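 further: growth inhibition of human CaR-1 cancer cells, read out with a cell viability assay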
Description: SANGER: Inhibition of human CaR-1 cell growth in a cell viability assay.

SW-620 = assay: cells; format: functional, cell-based; conditions: Homo sapiens;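 further: growth inhibition of human SW-620 cells, measured by a cell viability assay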
Description: SANGER: Inhibition of human SW620 cell growth in a cell viability assay.

MDA-MB-157 = assay: cells; format: functional, cell-based; conditions: Homo sapiens
Description: SANGER: Inhibition of human MDA-MB-157 cell growth in a cell viability assay.

Ca-Ski = assay: cells; format: functional, cell-based; conditions: Homo sapiens;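 further: cell viability assay measuring inhibition of Ca-Ski cell growth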
Description: SANGER: Inhibition of human Ca-Ski cell growth in a cell viability assay.

THP-1 = assay: cells; format: functional, cell-based; conditions: Homo sapiens;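 further: growth inhibition of THP-1 cells, read out via a cell viability assay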
Description: SANGER: Inhibition of human THP-1 cell growth in a cell viability assay.

ST486 = assay: SANGER: Inhibition of human ST486 cell growth in a cell viability assay.; format: functional, cell-based
IST-SL2 = assay: cells; format: functional, cell-based; conditions: Homo sapiens;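 further: growth inhibition of human IST-SL2 cells, read out by a cell viability assay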
Description: SANGER: Inhibition of human IST-SL2 cell growth in a cell viability assay.

CMK = assay: cells; format: functional, cell-based; conditions: Homo sapiens;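 further: growth inhibition of CMK cells, read out as cell viability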
Description: SANGER: Inhibition of human CMK cell growth in a cell viability assay.

KYSE-520 cell line = assay: cells; format: functional, cell-based; conditions: Homo sapiens;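 further: growth inhibition of human KYSE-520 cells, read out with a viability assay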
Description: SANGER: Inhibition of human KYSE-520 cell growth in a cell viability assay.

C32 = assay: cells; format: functional, cell-based; conditions: Homo sapiens;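 further: cell viability assay, with IC50 reflecting inhibition of C32 cell growth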
Description: SANGER: Inhibition of human C32 cell growth in a cell viability assay.

NCI-H2122 = assay: cells; format: functional, cell-based; conditions: Homo sapiens;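 further: growth inhibition of the cells, read out with a cell viability assay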
Description: SANGER: Inhibition of human NCI-H2122 cell growth in a cell viability assay.

COR-L23 = assay: cells; format: functional, cell-based; conditions: Homo sapiens;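 further: cell viability assay measuring how strongly compounds suppress growth of COR-L23 cells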
Description: SANGER: Inhibition of human COR-L23 cell growth in a cell viability assay.

NCI-H1793 = assay: cells; format: functional, cell-based; conditions: Homo sapiens;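 further: cell growth inhibition, read out by a cell viability assay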
Description: SANGER: Inhibition of human NCI-H1793 cell growth in a cell viability assay.

SF-295 = assay: cells; format: functional, cell-based; conditions: Homo sapiens;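 further: growth inhibition of SF-295 cells, read out with a cell viability assay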
Description: SANGER: Inhibition of human SF295 cell growth in a cell viability assay.

SK-MEL-24 = assay: cells; format: functional, cell-based; conditions: Homo sapiens;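 further: growth inhibition read out by a cell viability assay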
Description: SANGER: Inhibition of human SK-MEL-24 cell growth in a cell viability assay.

CP50-MEL-B = assay: cells; format: functional, cell-based; conditions: Homo sapiens;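 further: growth inhibition of the human cell line, measured with a cell viability read-out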
Description: SANGER: Inhibition of human CP50-MEL-B cell growth in a cell viability assay.

NUGC-3 = assay: cells; format: functional, cell-based; conditions: Homo sapiens;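 further: growth inhibition of human NUGC-3 cells, read out with a cell viability assay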
Description: SANGER: Inhibition of human NUGC-3 cell growth in a cell viability assay.

TGW = assay: cells; format: functional, cell-based; conditions: Homo sapiens;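 further: growth inhibition of human TGW cells, read out with a cell viability assay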
Description: SANGER: Inhibition of human TGW cell growth in a cell viability assay.

BPH-1 = assay: cells; format: functional, cell-based; conditions: Homo sapiens;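 further: cell viability assay measuring growth inhibition of human BPH-1 cells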
Description: SANGER: Inhibition of human BPH-1 cell growth in a cell viability assay.

SK-MEL-28 = assay: cells; format: functional, cell-based; conditions: Homo sapiens;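 further: growth inhibition of human SK-MEL-28 cells, read out with a cell viability assay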
Description: SANGER: Inhibition of human SK-MEL-28 cell growth in a cell viability assay.

DOK = assay: cells; format: functional, cell-based; conditions: Homo sapiens;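 further: cell viability assay read-out, values reflect inhibition of cell growth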
Description: SANGER: Inhibition of human DOK cell growth in a cell viability assay.

PA-1 = assay: cells; format: functional, cell-based; conditions: Homo sapiens
Description: SANGER: Inhibition of human PA-1 cell growth in a cell viability assay.

OVCAR-5 = assay: cells; format: functional, cell-based; conditions: Homo sapiens
Description: SANGER: Inhibition of human OVCAR-5 cell growth in a cell viability assay.

D-247MG = assay: cells; format: functional, cell-based; conditions: Homo sapiens
Description: SANGER: Inhibition of human D-247MG cell growth in a cell viability assay.

Kasumi 1 = assay: cells; format: functional, cell-based; conditions: Homo sapiens
Description: SANGER: Inhibition of human KASUMI-1 cell growth in a cell viability assay.

`C/C(O)=C(\C#N)C(=O)Nc1cc(Br)ccc1Br` was tested, and the IC50 (LC4-1) was greater than 16 µM, the IC50 (NCI-H2030) was greater than 16 µM and the IC50 (MEL-JUSO) was greater than 16 µM. For the same compound, the IC50 (SW1710) was greater than 16 µM, the IC50 (SKG-IIIa) was greater than 16 µM and the IC50 (NCI-H748) was greater than 16 µM. The IC50 (RD) was greater than 16 µM, the IC50 (CWR22R) was greater than 16 µM and the IC50 (MIA PaCa-2) was greater than 16 µM. It also gave an IC50 (RPMI-2650) greater than 16 µM, an IC50 (EB2) greater than 16 µM and an IC50 (CAKI-1) greater than 16 µM. It also gave an IC50 (EB-3) greater than 16 µM, an IC50 (NCI-H2052) greater than 16 µM and an IC50 (769-P) greater than 16 µM. The IC50 (SW626) was greater than 16 µM, the IC50 (8505C) was greater than 16 µM and the IC50 (MDA-MB-361) was greater than 16 µM. For the same compound, the IC50 (NCI-N87) was greater than 16 µM, the IC50 (GCT) was greater than 16 µM and the IC50 (T84) was greater than 16 µM. For the same compound, the IC50 (TALL-1) was greater than 16 µM, the IC50 (UMC-11) was greater than 16 µM and the IC50 (LK-2) was greater than 16 µM. It also gave an IC50 (RPMI-6666) greater than 16 µM, an IC50 (RERF-LC-MS) greater than 16 µM and an IC50 (FaDu) greater than 16 µM. The IC50 (A-375) was greater than 16 µM, the IC50 (MDA-MB-175-VII) was greater than 16 µM and the IC50 (KYSE-70 cell line) was greater than 16 µM. The IC50 (K052) was greater than 16 µM, the IC50 (8305C) was greater than 16 µM and the IC50 (BC-3) was greater than 16 µM. It also gave an IC50 (MCF7) greater than 16 µM, an IC50 (BXPC-3) greater than 16 µM and an IC50 (PANC-03-27) greater than 16 µM. For the same compound, the IC50 (OAW-42) was greater than 16 µM, the IC50 (NCI-H1882) was greater than 16 µM and the IC50 5637 was greater than 16 µM. For the same compound, the IC50 (CAL-12T) was greater than 16 µM, the IC50 (CaR-1) was greater than 16 µM and the IC50 (SW-620) was greater than 16 µM. For the same compound, the IC50 (MDA-MB-157) was greater than 16 µM, the IC50 (Ca-Ski) was greater than 16 µM and the IC50 (THP-1) was greater than 16 µM. It also gave an IC50 (ST486) greater than 16000 nM, an IC50 (IST-SL2) greater than 16 µM and an IC50 (CMK) greater than 16 µM. The IC50 (KYSE-520 cell line) was greater than 16 µM, the IC50 (C32) was greater than 16 µM and the IC50 (NCI-H2122) was greater than 16 µM. The IC50 (COR-L23) was greater than 16 µM, the IC50 (NCI-H1793) was greater than 16 µM and the IC50 (SF-295) was greater than 16 µM. It also gave an IC50 (SK-MEL-24) greater than 16 µM, an IC50 (CP50-MEL-B) greater than 16 µM and an IC50 (NUGC-3) greater than 16 µM. It also gave an IC50 (TGW) greater than 16 µM, an IC50 (BPH-1) greater than 16 µM and an IC50 (SK-MEL-28) greater than 16 µM. It also gave an IC50 (DOK) greater than 16 µM, an IC50 (PA-1) greater than 16 µM and an IC50 (OVCAR-5) greater than 16 µM.

For `Cc1ccc(NC(=O)c2cccc(C(C)(C)C#N)c2)cc1Nc1ccc2ncn(C)c(=O)c2c1`, the IC50 (LC4-1) was greater than 4 µM, the IC50 (NCI-H748) was greater than 4 µM and the IC50 (D-247MG) was greater than 4 µM. The IC50 (EB2) was greater than 4 µM, the IC50 (EB-3) was greater than 4 µM and the IC50 (TALL-1) was greater than 4 µM. For the same compound, the IC50 (RPMI-6666) was greater than 4 µM, the IC50 (Kasumi 1) was greater than 4 µM and the IC50 (BC-3) was greater than 4 µM. It also gave an IC50 (NCI-H1882) greater than 4 µM, an IC50 (THP-1) greater than 4 µM and an IC50 (ST486) of 1390 nM. For the same compound, the IC50 (IST-SL2) was greater than 4 µM, the IC50 (CMK) was greater than 4 µM and the IC50 (TGW) was greater than 4 µM.

`C[C@]1(c2nc3c(C(N)=O)cccc3[nH]2)CCCN1` [VELIPARIB] gave an IC50 (NCI-H2030) greater than 5 µM, an IC50 (MEL-JUSO) greater than 5 µM and an IC50 (SW1710) greater than 5 µM. For the same compound, the IC50 (SKG-IIIa) was greater than 5 µM, the IC50 (D-247MG) was greater than 5 µM and the IC50 (RD) was greater than 5 µM. For the same compound, the IC50 (CWR22R) was greater than 5 µM, the IC50 (MIA PaCa-2) was greater than 5 µM and the IC50 (RPMI-2650) was greater than 5 µM. The IC50 (CAKI-1) was greater than 5 µM, the IC50 (NCI-H2052) was greater than 5 µM and the IC50 (769-P) was greater than 5 µM. The IC50 (SW626) was greater than 5 µM, the IC50 (8505C) was greater than 5 µM and the IC50 (MDA-MB-361) was greater than 5 µM. For the same compound, the IC50 (NCI-N87) was greater than 5 µM, the IC50 (GCT) was greater than 5 µM and the IC50 (T84) was greater than 5 µM. For the same compound, the IC50 (UMC-11) was greater than 5 µM, the IC50 (LK-2) was greater than 5 µM and the IC50 (Kasumi 1) was greater than 5 µM. The IC50 (RERF-LC-MS) was greater than 5 µM, the IC50 (FaDu) was greater than 5 µM and the IC50 (A-375) was greater than 5 µM. The IC50 (MDA-MB-175-VII) was greater than 5 µM, the IC50 (KYSE-70 cell line) was greater than 5 µM and the IC50 (8305C) was greater than 5 µM. For the same compound, the IC50 (MCF7) was greater than 5 µM, the IC50 (BXPC-3) was greater than 5 µM and the IC50 (PANC-03-27) was greater than 5 µM. The IC50 (OAW-42) was greater than 5 µM, the IC50 5637 was greater than 5 µM and the IC50 (CAL-12T) was greater than 5 µM. For the same compound, the IC50 (CaR-1) was greater than 5 µM, the IC50 (SW-620) was greater than 5 µM and the IC50 (MDA-MB-157) was greater than 5 µM. For the same compound, the IC50 (Ca-Ski) was greater than 5 µM, the IC50 (KYSE-520 cell line) was greater than 5 µM and the IC50 (C32) was greater than 5 µM. For the same compound, the IC50 (NCI-H2122) was greater than 5 µM, the IC50 (COR-L23) was greater than 5 µM and the IC50 (NCI-H1793) was greater than 5 µM. It also gave an IC50 (SF-295) greater than 5 µM, an IC50 (SK-MEL-24) greater than 5 µM and an IC50 (CP50-MEL-B) greater than 5 µM. It also gave an IC50 (NUGC-3) greater than 5 µM, an IC50 (BPH-1) greater than 5 µM and an IC50 (SK-MEL-28) greater than 5 µM. It also gave an IC50 (DOK) greater than 5 µM, an IC50 (PA-1) greater than 5 µM and an IC50 (OVCAR-5) greater than 5 µM.
